From ChEMBL document CHEMBL5500371, “Arginine and tryptophan-rich dendritic antimicrobial peptides that disrupt membranes for bacterial infection in vivo” (Eur J Med Chem, 2024) come the findings set out here.

Activity calls are given as the source filed them. Where a SMILES comes first, the peptide text is derived from it. Side-chain parts run from the residue outwards.

Data set [1] in a line: Therapeutic index, ratio of MHC10 for hemolytic activity in mouse erythrocytes preincubated with 10% mouse serum for 6 hrs to MIC for Escherichia coli ATCC 25922 preincubated with 10% mouse serum for 6 hrs. Particulars: mouse erythrocytes, read-out: TI. It counts as toxicity, cell-based.
Data set [2] in a line: Systemic toxicity in male BALB/c mouse assessed as renal cell necrosis at 109.31 mg/kg, ip administered as single dose by H and E staining based analysis. It counts as organism-based. Particulars: in vivo.
Data set [3] concerns Cell membrane. Description: Induction of outer membrane permeabilization in Escherichia coli assessed as increase in fluorescence intensity at 0.5 to 4 times MIC measured within 1 min by NPN dye based assay.
In data set [4] the test system is Cell membrane. Description: Disruption of cell membrane morphology in Escherichia coli assessed as loss of intact cell morphology at 2 times MIC measured after 0.5 to 2 hrs by SEM analysis. Particulars: time 0.5-2 hrs. Format: cell membranes.
Data set [5] concerns Escherichia coli. Description: Antibacterial activity against Escherichia coli ATCC 25922 assessed as inhibition of bacterial growth incubated for 20 hrs in presence of KCl by broth microdilution method (reference value: 16 microM). Format: functional. In general terms: Dilution methods test growth across graded concentrations, often in twofold steps.
Data set [6] relates to Escherichia coli. Kind of data set: Additive antibacterial activity against Escherichia coli ATCC 25922 assessed as fractional inhibitory concentration index at 0.25 to 4 times MIC incubated for 20 hrs in presence of gentamicin by checkerboard assay. Format: functional.
Data set [7] in a line: Acute toxicity in male BALB/c mouse assessed as loss of appetite at 80 to 130 mg/kg, ip administered as single dose and measured after 3 days. Format: organism-based. The following applies: in vivo, 72 h, dose 80-130 mg/kg, time 3 day.
For data set [8], the system named is Escherichia coli. Description: Antibacterial activity against Escherichia coli ATCC 25922 assessed as inhibition of bacterial growth incubated for 20 hrs in presence of NaCl by broth microdilution method (reference value: 16 microM). Format: functional.
Data set [9] has as its system Staphylococcus aureus. Description: Antibacterial activity against Staphylococcus aureus ATCC 25923 assessed as inhibition of bacterial growth incubated for 20 hrs in presence of ZnCl2 by broth microdilution method (reference value: 16 microM). It counts as functional.
Data set [10] deals with Escherichia coli. Description: Additive antibacterial activity against Escherichia coli ATCC 25922 assessed as fractional inhibitory concentration index at 0.25 to 4 times MIC incubated for 20 hrs in presence of kanamycin by checkerboard assay. Format: functional.
A short description of data set [11]: Acute toxicity in ip dosed male BALB/c mouse administered as single dose. It counts as organism-based. The following applies: male, BALB/c, in vivo, read-out: LD50.
Data set [12] relates to Escherichia coli. Kind of data set: Antibacterial activity against Escherichia coli ATCC 25922 assessed as inhibition of bacterial growth incubated for 20 hrs in presence of FeCl3 by broth microdilution method (reference value: 16 microM). Format: functional.
Data set [13] in a line: Systemic toxicity in male BALB/c mouse assessed as lung inflammatory cell infiltration at 109.31 mg/kg, ip administered as single dose by H and E staining based analysis. It counts as organism-based. The following applies: in vivo.
The test system of data set [14] is Escherichia coli. Kind of data set: Bactericidal activity against Escherichia coli ATCC 25922 assessed as elimination of bacteria at 2 times MIC measured after 1 hrs by time kill assay. It counts as functional, organism-based.
In data set [15] the test system is Cell membrane. Kind of data set: Induction of cell membrane damage in Escherichia coli assessed as PI uptake at 2 times MIC measured after 2 hrs by PI dye based flow cytometry analysis (reference value: 16.5%). It counts as cell membranes. In general terms: Flow cytometry measures light scatter and fluorescence of single cells or particles in a stream.
Data set [16] has as its system Escherichia coli. Description: Synergistic antibacterial activity against Escherichia coli ATCC 25922 assessed as fractional inhibitory concentration index at 0.25 to 4 times MIC incubated for 20 hrs in presence of rifampicin by checkerboard assay. It counts as functional, organism-based.
Data set [17] concerns Escherichia coli. Kind of data set: Resistant development in Escherichia coli assessed as increase in MIC at sub-MIC measured after 20 passages. Format: functional, organism-based.
Data set [18] relates to Escherichia coli. Description: Synergistic antibacterial activity against Escherichia coli ATCC 25922 assessed as fractional inhibitory concentration index at 0.25 to 4 times MIC incubated for 20 hrs in presence of vancomycin by checkerboard assay. It counts as functional, organism-based.
The test system of data set [19] is Escherichia coli. Description: […] activity against Escherichia coli ATCC 25922 infected in male BALB/c pulmonary infection model assessed as reduction in inflammatory cell infiltration at 10 mg/kg, ip administered at 3 and 12 hrs post infection and measured 24 hrs post infection by H and E staining based analysis. Format: functional, organism-based. Particulars: time 12-21 hrs.

Data set [20] concerns Escherichia coli. Kind of data set: […] activity against Escherichia coli ATCC 25922 infected in male BALB/c pulmonary infection model assessed as reduction in lung inflammation at 10 mg/kg, ip administered at 3 and 12 hrs post infection and measured 24 hrs post infection by H and E staining based analysis. Particulars: time 12-21 hrs. Format: functional, organism-based.

For data set [21], the system named is Escherichia coli. Kind of data set: Synergistic antibacterial activity against rifampicin resistant Escherichia coli ATCC 25922 assessed as fractional inhibitory concentration index at 0.25 to 4 times MIC incubated for 20 hrs in presence of rifampicin by checkerboard assay. It counts as functional, organism-based.
The test system of data set [22] is Staphylococcus aureus. Description: Resistant development in Staphylococcus aureus assessed as increase in MIC at sub-MIC measured after 20 passages. Format: functional, organism-based.
For data set [23], the system named is Escherichia coli. Description: Synergistic antibacterial activity against Escherichia coli ATCC 25922 assessed as fractional inhibitory concentration index at 0.25 to 4 times MIC incubated for 20 hrs in presence of gentamicin by checkerboard assay. Format: functional, organism-based.
The test system of data set [24] is Escherichia coli. Kind of data set: Antibacterial activity against Escherichia coli ATCC 25922 assessed as inhibition of bacterial growth incubated for 20 hrs in presence of FeCl3 by broth microdilution method (reference value: 4 microM). Format: functional, organism-based.
The subject of data set [25] is Escherichia coli. Description: Antibacterial activity against Escherichia coli ATCC 25922 assessed as inhibition of bacterial growth incubated for 20 hrs in presence of KCl by broth microdilution method (reference value: 4 microM). Format: functional, organism-based.
Data set [26] has as its system Escherichia coli. Kind of data set: Antibacterial activity against Escherichia coli ATCC 25922 assessed as inhibition of bacterial growth incubated for 20 hrs in presence of KCl by broth microdilution method (reference value: 8 microM). It counts as functional.
Data set [27] has as its system Escherichia coli. Description: Antibacterial activity against Escherichia coli ATCC 25922 assessed as inhibition of bacterial growth incubated for 20 hrs in presence of ZnCl2 by broth microdilution method (reference value: 8 microM). It counts as functional.
Data set [28] relates to Escherichia coli. Description: Antibacterial activity against Escherichia coli ATCC 25922 assessed as inhibition of bacterial growth incubated for 20 hrs in presence of NaCl by broth microdilution method (reference value: 8 microM). It counts as functional.
The test system of data set [29] is Staphylococcus aureus. Description: Synergistic antibacterial activity against gentamicin resistant Staphylococcus aureus ATCC 25923 assessed as fractional inhibitory concentration index at 0.25 to 4 times MIC incubated for 20 hrs in presence of gentamicin by checkerboard assay. Format: functional.
Data set [30] can be described thus: Systemic toxicity in male BALB/c mouse assessed as hepatocyte hemorrhage at 105.41 mg/kg, ip administered as single dose by H and E staining based analysis. Particulars: hepatocytes. It counts as organism-based.
Data set [31] relates to Staphylococcus aureus. Kind of data set: Antibacterial activity against Staphylococcus aureus ATCC 25923 assessed as inhibition of bacterial growth incubated for 20 hrs in presence of ZnCl2 by broth microdilution method (reference value: 8 microM). Format: functional.
Data set [32] in a line: Systemic toxicity in male BALB/c mouse assessed as lung inflammatory cell infiltration at 105.41 mg/kg, ip administered as single dose by H and E staining based analysis. Format: organism-based. Particulars: in vivo.
The test system of data set [33] is Escherichia coli. Kind of data set: Antibacterial activity against Escherichia coli ATCC 25922 assessed as inhibition of bacterial growth incubated for 20 hrs in presence of MgCl2 by broth microdilution method (reference value: 8 microM). It counts as functional.
Data set [34] relates to Staphylococcus aureus. Description: Antibacterial activity against Staphylococcus aureus ATCC 25923 assessed as inhibition of bacterial growth incubated for 20 hrs in presence of MgCl2 by broth microdilution method (reference value: 8 microM). It counts as functional.

Consider `N=C(N)NCCC[C@H](NC(=O)[C@@H](N)CCCNC(=N)N)C(=O)NCCCC[C@H](NC(=O)[C@H](CCCNC(=N)N)NC(=O)[C@@H](N)CCCNC(=N)N)C(=O)N[C@@H](Cc1c[nH]c2ccccc12)C(=O)N[C@@H](Cc1c[nH]c2ccccc12)C(=O)N[C@@H](Cc1c[nH]c2ccccc12)C(=O)N[C@@H](Cc1c[nH]c2ccccc12)C(N)=O` (H-RRK([Arg-Arg])WWWW-NH2), for which the selectivity ratio in data set [1] was found to be 0.5. The Activity result is listed as “Non-Toxic” in data set [2], “Toxic” in data set [7] and “Non-Toxic” in [13]. Moreover, the outcome in data set [3] and in [4] was Active. For the same molecule, the MIC in [5] amounted to 16 µM; in data set [8], 32 µM; in data set [9], 16 µM; in data set [12], 16 µM. Further, the “fractional inhibitory concentration index (FICI)” value in [6] and in data set [10] was 0.563 in each case. Moreover, the LD50 in [11] was determined as 109 mg/kg.

As to POLYMYXIN B, the Activity was 100% in [14] and 46.8% in [15]. The fractional inhibitory concentration index (FICI) in data set [16], in data set [18], in [21] and in data set [23] was 0.313 each time. The outcome in [17], in [19], in data set [20] and in [22] was inactive. The minimum inhibitory concentration (MIC) in [9] came out at 16 µM; in data set [24] it was 4 µM; in [25], 4 µM.

With `N=C(N)NCCC[C@H](NC(=O)[C@H](CCCNC(=N)N)NC(=O)[C@H](CCCNC(=N)N)NC(=O)[C@@H](N)CCCNC(=N)N)C(=O)N[C@@H](CCCCN)C(=O)N[C@@H](Cc1c[nH]c2ccccc12)C(=O)N[C@@H](Cc1c[nH]c2ccccc12)C(=O)N[C@@H](Cc1c[nH]c2ccccc12)C(=O)N[C@@H](Cc1c[nH]c2ccccc12)C(N)=O`, the MIC in [26] is 16 µM; in [27] it was 8 µM; in data set [28] it was 16 µM; in data set [31], 8 µM; in [33], 16 µM; in data set [34], 16 µM. The “fractional inhibitory concentration index (FICI)” value in data set [29] worked out at 0.5. Besides, the selectivity ratio in data set [1] stood at 0.25. Besides, the outcome in data set [3] and in data set [4] was Active. Moreover, the Activity result was “Non-Toxic” in data set [30], “Toxic” in [7] and “Non-Toxic” in data set [32]. The LD50 in [11] is 105 mg/kg.

A word on the MIC: it is the smallest concentration in the dilution series that meets the test's criterion for growth inhibition. Broadly, the LD50 is the dose expected to kill half of the subjects tested.
